Experiments:
Type in all cases: biochemical
hABHD12 [1] = molecular target: T1, hABHD12 (Homo sapiens, UniProt Q8N2K0); experiment: Fluorescent glycerol assay of 1-AG hydrolysis in hABHD12-HEK293 lysates; settings: for Emax: read-out: max inhibition (converted)
T1 construct: expressed in transfected cells; host or cells: HEK293 (transient)
T1 sequence (Q8N2K0 1-398): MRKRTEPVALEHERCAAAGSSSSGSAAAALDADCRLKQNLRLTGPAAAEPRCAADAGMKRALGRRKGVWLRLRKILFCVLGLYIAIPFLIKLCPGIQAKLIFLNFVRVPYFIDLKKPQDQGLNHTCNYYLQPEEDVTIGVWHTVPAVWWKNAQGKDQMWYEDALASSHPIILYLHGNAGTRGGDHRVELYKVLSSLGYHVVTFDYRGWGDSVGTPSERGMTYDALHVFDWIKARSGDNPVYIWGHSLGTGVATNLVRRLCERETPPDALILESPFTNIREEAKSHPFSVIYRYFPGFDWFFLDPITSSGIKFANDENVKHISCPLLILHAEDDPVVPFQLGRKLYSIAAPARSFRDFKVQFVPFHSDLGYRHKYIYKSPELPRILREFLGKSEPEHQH
Method: (§1) Glycerol liberated from 1-AG hydrolysis was determined with a sensitive fluorescent assay using lysates of HEK293 cells with transient overexpression of hABHD12, hABHD6 or hMAGL, essentially as previously described. […] Fluorescence (λex 530; λem 590 nm) was monitored using a Tecan Infinite M200 plate reader (Tecan Group Ltd., Männedorf, Switzerland). Inhibitory activities of selected compounds towards FAAH were determined using membranes of hFAAH overexpressing COS-7 cells, essentially as previously described. The final incubation volume (100 µL) contained 1 µg of protein and the substrate concentration was 20 µM (10 nM of ^3H-anandamide having specific activity of 60 Ci/mmol and concentration of 1 mCi/mL).

hMAGL = molecular target: T2, hMAGL (Homo sapiens, UniProt Q99685); experiment: Fluorescent glycerol assay in hMAGL-HEK293 lysates; settings: for remaining activity at 10 µM: read-out: hMAGL Remaining activity % control ± s.e.m (n=3)
T2 construct: expressed in transfected cells; host or cells: HEK293 (transient)
T2 sequence (Q99685 1-303): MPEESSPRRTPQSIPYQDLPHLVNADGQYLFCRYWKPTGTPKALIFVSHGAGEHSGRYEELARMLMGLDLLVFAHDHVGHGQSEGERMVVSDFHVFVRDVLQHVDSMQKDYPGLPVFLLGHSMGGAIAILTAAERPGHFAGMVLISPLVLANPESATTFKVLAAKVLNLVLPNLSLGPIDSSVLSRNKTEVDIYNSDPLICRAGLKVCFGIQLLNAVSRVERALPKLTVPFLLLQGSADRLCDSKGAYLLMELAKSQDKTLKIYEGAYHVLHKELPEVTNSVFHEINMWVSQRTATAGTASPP
Method: as §1

hFAAH = molecular target: T3, hFAAH (Homo sapiens, UniProt O00519); experiment: FAAH activity, membranes of hFAAH overexpressing COS-7 cells, 3H-anandamide; settings: read-out: hFAAH Remaining activity % control (mean (range)), n=2
T3 construct: expressed in transfected cells; host or cells: COS-7
T3 sequence (O00519 1-579): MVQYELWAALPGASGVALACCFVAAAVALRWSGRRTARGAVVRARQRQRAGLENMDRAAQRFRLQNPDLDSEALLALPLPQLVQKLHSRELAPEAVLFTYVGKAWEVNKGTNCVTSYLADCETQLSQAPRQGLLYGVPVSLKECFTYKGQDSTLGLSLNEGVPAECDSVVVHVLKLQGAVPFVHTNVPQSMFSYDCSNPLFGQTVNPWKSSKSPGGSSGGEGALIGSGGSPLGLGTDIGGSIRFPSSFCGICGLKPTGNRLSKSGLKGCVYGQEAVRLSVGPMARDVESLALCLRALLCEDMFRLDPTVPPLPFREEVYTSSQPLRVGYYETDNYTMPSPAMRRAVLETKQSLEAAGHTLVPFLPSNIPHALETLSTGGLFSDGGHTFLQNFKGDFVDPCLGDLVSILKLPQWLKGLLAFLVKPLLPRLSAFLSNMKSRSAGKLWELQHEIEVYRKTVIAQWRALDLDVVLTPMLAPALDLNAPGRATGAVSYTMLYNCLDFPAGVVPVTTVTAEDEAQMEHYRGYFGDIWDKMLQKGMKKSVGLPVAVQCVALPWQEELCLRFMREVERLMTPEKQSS
Method: as §1

hABHD6 = molecular target: T4, hABHD6 (Homo sapiens, UniProt Q9BV23); experiment: Fluorescent glycerol assay in hABHD6-HEK293 lysates; settings: for remaining activity at 10 µM: NI = no inhibition at 10 µM, read-out: hABHD6 Remaining activity % control ± s.e.m (n=3)
T4 construct: expressed in transfected cells; host or cells: HEK293 (transient)
T4 sequence (Q9BV23 1-337): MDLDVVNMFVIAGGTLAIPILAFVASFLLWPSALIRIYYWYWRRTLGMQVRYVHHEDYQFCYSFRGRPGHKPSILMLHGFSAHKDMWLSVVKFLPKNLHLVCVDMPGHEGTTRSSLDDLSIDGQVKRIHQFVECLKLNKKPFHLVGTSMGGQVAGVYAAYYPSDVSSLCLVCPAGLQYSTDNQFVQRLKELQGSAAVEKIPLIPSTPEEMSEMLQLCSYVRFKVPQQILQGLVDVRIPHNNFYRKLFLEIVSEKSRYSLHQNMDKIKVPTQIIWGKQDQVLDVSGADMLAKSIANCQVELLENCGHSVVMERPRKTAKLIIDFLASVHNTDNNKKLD
Method: as §1

hABHD12 [2] = molecular target: T1, hABHD12; experiment: LC-MS assay of ABHD12 activity (1-AG utilization / AA formation) in hABHD12-HEK293 lysates; settings: n = 2, dose-response by LC-MS; for IC50: s.d.
Method: The fluorescent glycerol assay was mimicked otherwise but instead of assaying glycerol, utilization of 1-AG and concomitant formation of AA was monitored by LC-MS analysis. […] Enzymatic reaction was stopped by adding 400 µL of cold 11 mM H3PO4 in acetonitrile. 150 µL aliquots were filtered using Captiva 96-well filter plate (0.2 µm, Agilent Technologies, USA) into the Captiva 96-well collection plate (Agilent Technologies, USA) containing 50 µL of 0.1% formic acid in H2O. The collection plate was centrifuged at 4°C for 10 minutes and the samples were analyzed by LC-MS. HPLC system consisted of an Agilent 1200 Series Rapid Resolution LC System (Agilent Technologies, Waldbronn, Germany) with a solvent micro vacuum degasser, a binary pump, a thermostatted column compartment, and an autosampler. The mass analysis was made with an Agilent 6410 Triple Quadrupole MS equipped with an electrospray ionization (ESI) source (Agilent Technologies, Palo Alto, CA, USA). Five microliters of the sample solution were injected onto a reversed-phase HPLC column (Zorbax Eclipse XDB-C18 Rapid Resolution HT 2.1 mm×50 mm, 1.8 µm) (Agilent Technologies, Palo Alto, CA, USA) using an isocratic mobile phase consisting of 0.1% formic acid in a solution of H2O and methanol (20∶80 v/v) delivered at 0.5 mL/min. Column temperature was maintained at 50°C and the autosampler tray temperature was set at 4°C. The following ionization conditions were used for 1-AG: positive ESI mode, drying gas (nitrogen) temperature 300°C, drying gas flow rate 8 L/min, nebulizer pressure 40 psi, and capillary voltage 4000 V. The following ionization conditions were used for AA: negative ESI mode, drying gas (nitrogen) temperature 300°C, drying gas flow rate 8 L/min, nebulizer pressure 40 psi, and capillary voltage 4000 V. Analyte detection was performed using multiple reaction monitoring (MRM) with the following transitions: m/z 379 → 287 for 1-AG and m/z 303 → 303 for AA. Fragmentor voltage and collision energy for 1-AG and AA were 130 V/8 V and 175 V/2 V, respectively. […] In addition, the 2-AG positional isomer is chromatographically separated from 1-AG with retention time 2.1 min, and the peak areas of 1-AG and 2-AG were subsequently combined for all quantitative analyses reported and are thus collectively termed “1-AG”. The calibration range of 0.1–2,000 ng/mL and 0.1–1,000 ng/mL was prepared for monitored 1-AG and AA, respectively. The lower limit of quantification (LLOQ) for both analytes, 1-AG and AA, was 1.0 ng/mL.

hCB2R = molecular target: T5, hCB2R (Homo sapiens, UniProt P34972); experiment: [35S]GTPγS binding, CB2R agonist activity, hCB2R-CHO cell membranes
T5 construct: expressed in transfected cells; host or cells: CHO

CB1R [3] = molecular target: T6, CB1R (Rattus norvegicus, UniProt P20272); experiment: [35S]GTPγS binding, CB1R agonist activity, rat cerebellar membranes
T6 construct: membranes prepared from brain tissue of 4-week-old male rodents were used; from tissue; host or cells: rat cerebellar membranes
Method: (§2) The CB1 and CB2 receptor activity of the selected compounds (10 µM) were measured using the GTPγS binding assay according to the previously described methods, [33].
(§3) For ABPP experiments (Figure 6C) and cannabinoid receptor activity assays (Table S2), membranes prepared from brain tissue of 4-week-old male rodents were used. The animals were obtained from the National Laboratory Animal Centre, University of Eastern Finland. Approval for the harvesting of animal tissue was obtained from the local welfare officer of the University of Eastern Finland.

CB1R [4] = molecular target: T6, CB1R; experiment: [35S]GTPγS binding, CB1R antagonist activity, rat cerebellar membranes; settings: 10 µM
Method: as §2, §3

[5] = hABHD12-HEK293 lysates, three independent experiments, read-out: -logIC50±s.e.m. (converted)
[6] = hABHD12-HEK293 lysates, read-out: IC50

T5 sequence (P34972 whole entry): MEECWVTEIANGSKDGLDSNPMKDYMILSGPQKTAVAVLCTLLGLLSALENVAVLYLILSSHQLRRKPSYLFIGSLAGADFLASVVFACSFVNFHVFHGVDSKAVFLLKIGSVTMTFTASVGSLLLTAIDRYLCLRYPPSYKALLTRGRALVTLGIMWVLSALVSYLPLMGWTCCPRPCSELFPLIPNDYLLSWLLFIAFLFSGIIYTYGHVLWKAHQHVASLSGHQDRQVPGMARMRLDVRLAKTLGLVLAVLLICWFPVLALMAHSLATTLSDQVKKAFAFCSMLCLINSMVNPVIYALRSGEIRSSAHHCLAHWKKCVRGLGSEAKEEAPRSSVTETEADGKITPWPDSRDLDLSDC
T6 sequence (P20272 whole entry): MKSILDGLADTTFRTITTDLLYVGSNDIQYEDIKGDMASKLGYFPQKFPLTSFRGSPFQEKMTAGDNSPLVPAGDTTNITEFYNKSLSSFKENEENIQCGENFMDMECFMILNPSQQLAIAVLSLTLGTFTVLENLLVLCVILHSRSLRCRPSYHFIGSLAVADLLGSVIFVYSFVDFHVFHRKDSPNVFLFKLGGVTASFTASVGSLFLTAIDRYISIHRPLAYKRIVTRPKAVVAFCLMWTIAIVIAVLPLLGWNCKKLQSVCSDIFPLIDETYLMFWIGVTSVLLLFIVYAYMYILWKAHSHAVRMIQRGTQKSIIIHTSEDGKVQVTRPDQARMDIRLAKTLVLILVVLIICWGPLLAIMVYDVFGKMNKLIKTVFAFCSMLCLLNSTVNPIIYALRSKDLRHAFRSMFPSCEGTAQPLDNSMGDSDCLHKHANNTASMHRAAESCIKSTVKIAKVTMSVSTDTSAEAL

C=C(C)[C@@H]1CC[C@]2(C(=O)O)CC[C@]3(C)[C@H](CC[C@@H]4[C@@]5(C)CC6OC(C)(C)OC6C(C)(C)[C@@H]5CC[C@]43C)[C@@H]12 (some centres unmarked) [Compound 31]
IC50 (hABHD12 [1]; [5]): 7.41 µM
IC50 (hABHD12 [1]; [6]): 7.5 µM
Emax (hABHD12 [1]; hABHD12-HEK293 lysates): 90%
remaining activity at 10 µM (hMAGL): 82.7 ± 4.1%
remaining activity at 10 µM (hFAAH): 91%
remaining activity at 10 µM (hABHD6): 93.2 ± 3%

C=C(C)[C@@H]1CC[C@]2(C(=O)O)CC[C@]3(C)[C@H](CC[C@@H]4[C@@]5(C)CCC(=O)NC(C)(C)[C@@H]5CC[C@]43C)[C@@H]12 [Compound 36]
IC50 (hABHD12 [1]; [6]): 9.1 µM
Emax (hABHD12 [1]; hABHD12-HEK293 lysates): 88%
remaining activity at 10 µM (hMAGL): 54.1 ± 4.7%
remaining activity at 10 µM (hFAAH): 88%
remaining activity at 10 µM (hABHD6): 80 ± 4.4%

C=C(C)[C@@H]1CC[C@]2(C=NO)CC[C@]3(C)[C@H](CC[C@@H]4[C@@]5(C)CCC(=NO)C(C)(C)[C@@H]5CC[C@]43C)[C@@H]12 [Compound 25]
remaining activity at 10 µM (hMAGL): 88.7 ± 4.2%
remaining activity at 10 µM (hFAAH): 97%
max inhibition (hABHD12 [2]): 76%
IC50 (hABHD12 [2]): 3.98 µM
remaining activity at 10 µM (hABHD6): 103 ± 2.3%

C=C(C)[C@@H]1CC[C@]2(C=O)CC[C@]3(C)[C@H](CC[C@@H]4[C@@]5(C)CCC(=O)C(C)(C)[C@@H]5CC[C@]43C)[C@@H]12 [Compound 17]
IC50 (hABHD12 [1]; [5]): 4.47 µM
IC50 (hABHD12 [1]; [6]): 4.4 µM
Emax (hABHD12 [1]; hABHD12-HEK293 lysates): 57%
remaining activity at 10 µM (hMAGL): 84.1 ± 4.8%
remaining activity at 10 µM (hFAAH): 95%
remaining activity at 10 µM (hABHD6): 93.6 ± 3.8%

CCCCCCC(C)(C)c1cc(O)c2c(c1)OC(C)(C)[C@@H]1CC=C(CO)C[C@@H]21 [HU210]
CB2R agonist activity [35S]GTPγS binding % Basal (Mean (range), n=2) (hCB2R; 10 nM): 354 (348-361) % Basal
CB1R agonist activity [35S]GTPγS binding % basal ± SEM, n > 3 (CB1R [3]; reference compound at 1 µM): 430 ± 36 % Basal

C[C@H]1[C@H](C)CC[C@]2(C(=O)O)CC[C@]3(C)C(=CC[C@@H]4[C@@]5(C)CC[C@H](O)C(C)(C)[C@@H]5CC[C@]43C)[C@H]12 [Compound 4, Ursolic acid, reference compound]
hABHD12 inhibitory activity (in words) (hABHD12 [1]): selectively inhibit ABHD12
remaining activity at 10 µM (hABHD12 [1]; hABHD12-HEK293 lysates, 10 µM, NI = no inhibition, read-out: Remaining activity at 10 µM % ± s.e.m.): ~30%
effect on MAGL activity (hMAGL; preliminary screening): negligible effect
IC50 (hABHD12 [2]): 1.82 µM
effect on ABHD6 activity (hABHD6; preliminary screening): negligible effect

SR144528
CB2R agonist activity [35S]GTPγS binding % Basal (Mean (range), n=2) (hCB2R; 1 µM): 68 (60-76) % Basal

C=C(C)[C@@H]1CC[C@]2(C(=O)O)CC[C@]3(C)[C@H](CC[C@@H]4[C@@]5(C)CC[C@H](O)C(C)(C)[C@@H]5CC[C@]43C)[C@@H]12 [Compound 1, Betulinic acid, reference compound]
CB2R agonist activity [35S]GTPγS binding % Basal (Mean (range), n=2) (hCB2R; 10 µM): 132 (106-158) % Basal
remaining activity at 10 µM (hMAGL): 76.7 ± 0.1%
CB1R antagonist activity [35S]GTPγS binding % HU210-evoked response (Mean (range), n=2) (CB1R [4]): 99 (98-99) % HU210-evoked response
remaining activity at 10 µM (hFAAH): 83%
CB1R agonist activity [35S]GTPγS binding % Basal (Mean (range), n=2) (CB1R [3]; 10 µM): 91 (87-96) % Basal
IC50 (hABHD12 [2]): 2.51 µM
remaining activity at 10 µM (hABHD6): ~70%

C=C(C)[C@@H]1CC[C@]2(C(=O)O)CC[C@]3(C)[C@H](CC[C@@H]4[C@@]5(C)CCC(=O)C(C)(C)[C@@H]5CC[C@]43C)[C@@H]12 [Compound 18]
max inhibition (hABHD12 [2]): 100%
IC50 (hABHD12 [2]): 3.31 µM

C=C(C)[C@@H]1CC[C@]2(C=NO)CC[C@]3(C)[C@H](CC[C@@H]4[C@@]5(C)CC[C@H](O)C(C)(C)[C@@H]5CC[C@]43C)[C@@H]12 [Compound 24]
IC50 (hABHD12 [1]; [6]): 6.5 µM
Emax (hABHD12 [1]; hABHD12-HEK293 lysates): 61%
remaining activity at 10 µM (hMAGL): 86 ± 4.3%
remaining activity at 10 µM (hFAAH): 95%
remaining activity at 10 µM (hABHD6): 92.4 ± 3.9%

Reference: article PMC4045134, “Discovery of Triterpenoids as Reversible Inhibitors of α/β-hydrolase Domain Containing 12 (ABHD12)” (PLoS ONE, 2014)
